In patent publication US5859207A (priority 1996, dated 1999):

Experiments:
human monocytes = assay type: binding
[1] = tested on: Human peripheral blood mononuclear cells (PBMC)
[2] = tested on: Human peripheral blood mononuclear cells (PBMC); assay type: cell-based

For staphylococcal enterotoxin A [SEA], the “inhibition of biotinylated SEA(121-149) binding to monocytes” value (human monocytes) was “specifically inhibited”, the “concentration at which native SEA is effective (TNFα induction)” value [1] was 0.1 to 1 nM and the “cytotoxic activity neutralized by anti-TNFα antibody” value [1] was 63%. For the same substance, the IL-1 activity [2] was 875±5 units/ml.
For toxic shock syndrome toxin one [TSST-1], the TNFα production [1] was 99 units/ml, the “TNFα production by monocytes depleted of T cells” value [1] was “approximately 25 units TNFα/ml” and the “cytotoxic activity neutralized by anti-TNFα antibody” value [1] was 76%. For the same substance, the “induction of TNFα production (in words)” value [1] was “induced significant TNFα production”.
